{"source": "PubChem BioAssay (NCI)", "note": "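These data come from cells grown in 96-well plates and exposed to compound for 48 hours at five concentrations. Definition used: TGI = concentration required for complete inhibition of growth.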", "data": [{"test_system": "EKVX NSCLC", "test": "NCI-60 cell line screen, 48 h", "units": {"TGI": "µM"}, "values": [{"molecule": "CCCCCCCCCCCCNC(=S)OC", "TGI": 36.6}, {"molecule": "O=c1[nH]c2cc(Cl)ccc2nc1/C(=N\\Nc1ccccc1)C(O)c1ccc(Cl)c(Cl)c1", "note": "(stereo not drawn)", "TGI": "> 100"}, {"molecule": "S=P1(Oc2ccccc2)NNP2(=NP(N3CC3)(N3CC3)=NP(N3CC3)(N3CC3)=N2)NN1", "note": "(stereo not drawn)", "TGI": "> 100"}, {"molecule": "CN(C)CC1CCCC/C1=N/O", "note": "(stereo not drawn)", "TGI": "> 100"}, {"molecule": "COc1c(CC(C)=O)ccc2c1C(=O)c1ccc(C=O)c(OC(C)=O)c1C2=O", "TGI": 56.9}]}, {"test_system": "MOLT-4 leukemia", "test": "NCI-60 cell line screen, 48 h", "units": {"TGI": "µM"}, "values": [{"molecule": "Clc1ccc2cccc3c2c1C1OC3c2ccccc21", "note": "(stereo not drawn)", "TGI": "> 100"}, {"molecule": "CN(C)C(=S)/N=c1\\ssc(=S)n1C1CCCCC1", "TGI": 52.3}, {"molecule": "CCCCCCCCCCCCNC(=S)OC", "TGI": 9.43}, {"molecule": "O=c1[nH]c2cc(Cl)ccc2nc1/C(=N\\Nc1ccccc1)C(O)c1ccc(Cl)c(Cl)c1", "note": "(stereo not drawn)", "TGI": "> 100"}, {"molecule": "S=P1(Oc2ccccc2)NNP2(=NP(N3CC3)(N3CC3)=NP(N3CC3)(N3CC3)=N2)NN1", "note": "(stereo not drawn)", "TGI": "> 100"}, {"molecule": "CN(C)CC1CCCC/C1=N/O", "note": "(stereo not drawn)", "TGI": "> 100"}, {"molecule": "COc1c(CC(C)=O)ccc2c1C(=O)c1ccc(C=O)c(OC(C)=O)c1C2=O", "TGI": 47.6}]}, {"test_system": "SK-MEL-2 melanoma", "test": "NCI-60 cell line screen, 48 h", "units": {"TGI": "µM"}, "values": [{"molecule": "COc1ccc2c(c1)[n+]([O-])c(C(N)=O)c(N)[n+]2[O-]", "TGI": "> 100"}, {"molecule": "Clc1ccc2cccc3c2c1C1OC3c2ccccc21", "note": "(stereo not drawn)", "TGI": "> 100"}, {"molecule": "CN(C)C(=S)/N=c1\\ssc(=S)n1C1CCCCC1", "TGI": "> 100"}, {"molecule": "CCCCCCCCCCCCNC(=S)OC", "TGI": 31.1}, {"molecule": "O=c1[nH]c2cc(Cl)ccc2nc1/C(=N\\Nc1ccccc1)C(O)c1ccc(Cl)c(Cl)c1", "note": "(stereo not drawn)", "TGI": "> 100"}, {"molecule": "S=P1(Oc2ccccc2)NNP2(=NP(N3CC3)(N3CC3)=NP(N3CC3)(N3CC3)=N2)NN1", "note": "(stereo not drawn)", "TGI": "> 100"}, {"molecule": "CN(C)CC1CCCC/C1=N/O", "note": "(stereo not drawn)", "TGI": "> 100"}, {"molecule": "COc1c(CC(C)=O)ccc2c1C(=O)c1ccc(C=O)c(OC(C)=O)c1C2=O", "TGI": 30.3}]}, {"test_system": "COLO 205 colon", "test": "NCI-60 cell line screen, 48 h", "units": {"TGI": "µM"}, "values": [{"molecule": "COc1ccc2c(c1)[n+]([O-])c(C(N)=O)c(N)[n+]2[O-]", "TGI": 46.2}, {"molecule": "Clc1ccc2cccc3c2c1C1OC3c2ccccc21", "note": "(stereo not drawn)", "TGI": "> 100"}, {"molecule": "O=c1[nH]c2cc(Cl)ccc2nc1/C(=N\\Nc1ccccc1)C(O)c1ccc(Cl)c(Cl)c1", "note": "(stereo not drawn)", "TGI": "> 100"}, {"molecule": "S=P1(Oc2ccccc2)NNP2(=NP(N3CC3)(N3CC3)=NP(N3CC3)(N3CC3)=N2)NN1", "note": "(stereo not drawn)", "TGI": "> 100"}, {"molecule": "CN(C)CC1CCCC/C1=N/O", "note": "(stereo not drawn)", "TGI": "> 100"}, {"molecule": "COc1c(CC(C)=O)ccc2c1C(=O)c1ccc(C=O)c(OC(C)=O)c1C2=O", "TGI": 31.6}]}, {"test_system": "DMS 273 small cell lung", "test": "NCI-60 cell line screen, 48 h", "units": {"TGI": "µM"}, "values": [{"molecule": "COc1ccc2c(c1)[n+]([O-])c(C(N)=O)c(N)[n+]2[O-]", "TGI": "> 100"}, {"molecule": "Clc1ccc2cccc3c2c1C1OC3c2ccccc21", "note": "(stereo not drawn)", "TGI": "> 100"}, {"molecule": "CN(C)C(=S)/N=c1\\ssc(=S)n1C1CCCCC1", "TGI": "> 100"}, {"molecule": "CCCCCCCCCCCCNC(=S)OC", "TGI": 29.3}, {"molecule": "O=c1[nH]c2cc(Cl)ccc2nc1/C(=N\\Nc1ccccc1)C(O)c1ccc(Cl)c(Cl)c1", "note": "(stereo not drawn)", "TGI": "> 100"}, {"molecule": "S=P1(Oc2ccccc2)NNP2(=NP(N3CC3)(N3CC3)=NP(N3CC3)(N3CC3)=N2)NN1", "note": "(stereo not drawn)", "TGI": "> 100"}, {"molecule": "CN(C)CC1CCCC/C1=N/O", "note": "(stereo not drawn)", "TGI": "> 100"}, {"molecule": "COc1c(CC(C)=O)ccc2c1C(=O)c1ccc(C=O)c(OC(C)=O)c1C2=O", "TGI": 24.5}]}, {"test_system": "SF-539 CNS", "test": "NCI-60 cell line screen, 48 h", "units": {"TGI": "µM"}, "values": [{"molecule": "COc1ccc2c(c1)[n+]([O-])c(C(N)=O)c(N)[n+]2[O-]", "TGI": "> 100"}, {"molecule": "Clc1ccc2cccc3c2c1C1OC3c2ccccc21", "note": "(stereo not drawn)", "TGI": "> 100"}, {"molecule": "CN(C)C(=S)/N=c1\\ssc(=S)n1C1CCCCC1", "TGI": 48.3}, {"molecule": "CCCCCCCCCCCCNC(=S)OC", "TGI": 30.9}, {"molecule": "O=c1[nH]c2cc(Cl)ccc2nc1/C(=N\\Nc1ccccc1)C(O)c1ccc(Cl)c(Cl)c1", "note": "(stereo not drawn)", "TGI": "> 100"}, {"molecule": "S=P1(Oc2ccccc2)NNP2(=NP(N3CC3)(N3CC3)=NP(N3CC3)(N3CC3)=N2)NN1", "note": "(stereo not drawn)", "TGI": "> 100"}, {"molecule": "CN(C)CC1CCCC/C1=N/O", "note": "(stereo not drawn)", "TGI": "> 100"}, {"molecule": "COc1c(CC(C)=O)ccc2c1C(=O)c1ccc(C=O)c(OC(C)=O)c1C2=O", "TGI": 20.8}]}, {"test_system": "M19-MEL melanoma", "test": "NCI-60 cell line screen, 48 h", "units": {"TGI": "µM"}, "values": [{"molecule": "COc1ccc2c(c1)[n+]([O-])c(C(N)=O)c(N)[n+]2[O-]", "TGI": "> 100"}, {"molecule": "Clc1ccc2cccc3c2c1C1OC3c2ccccc21", "note": "(stereo not drawn)", "TGI": "> 100"}, {"molecule": "CN(C)C(=S)/N=c1\\ssc(=S)n1C1CCCCC1", "TGI": "> 100"}, {"molecule": "CCCCCCCCCCCCNC(=S)OC", "TGI": 32.7}, {"molecule": "O=c1[nH]c2cc(Cl)ccc2nc1/C(=N\\Nc1ccccc1)C(O)c1ccc(Cl)c(Cl)c1", "note": "(stereo not drawn)", "TGI": "> 100"}, {"molecule": "S=P1(Oc2ccccc2)NNP2(=NP(N3CC3)(N3CC3)=NP(N3CC3)(N3CC3)=N2)NN1", "note": "(stereo not drawn)", "TGI": "> 100"}, {"molecule": "CN(C)CC1CCCC/C1=N/O", "note": "(stereo not drawn)", "TGI": "> 100"}]}, {"test_system": "OVCAR-3 ovarian", "test": "NCI-60 cell line screen, 48 h", "units": {"TGI": "µM"}, "values": [{"molecule": "COc1ccc2c(c1)[n+]([O-])c(C(N)=O)c(N)[n+]2[O-]", "TGI": 98.5}, {"molecule": "Clc1ccc2cccc3c2c1C1OC3c2ccccc21", "note": "(stereo not drawn)", "TGI": "> 100"}, {"molecule": "O=c1[nH]c2cc(Cl)ccc2nc1/C(=N\\Nc1ccccc1)C(O)c1ccc(Cl)c(Cl)c1", "note": "(stereo not drawn)", "TGI": "> 100"}, {"molecule": "S=P1(Oc2ccccc2)NNP2(=NP(N3CC3)(N3CC3)=NP(N3CC3)(N3CC3)=N2)NN1", "note": "(stereo not drawn)", "TGI": "> 100"}]}]}
